Patent US4593090A, “Novel nitrosourea compounds, method for preparing same, and pharmaceutical composition containing same” (Gogo Kimura, priority 1981, dated 1986)

Experiments:
Leukemia L1210 = assay: Activity against Leukemia L1210, intraperitoneal, increase in life span of mice; assay type: in vivo, female mice (BDF1 family); conditions: for ED (maximum ILS) / ED30: Mus musculus, L1210, ip, ip once a day for 5 successive days; for ED (maximum ILS): daily dosage giving maximum increase of life span, read-out: O.D. (optimum dosage); for ED30: daily dosage increasing average survival days by 30%, read-out: ILS30; for Survivors after 60 days / Max. ILS % / Therapeutic ratio TR: ip; for Survivors after 60 days: 6-membered group; for Max. ILS %: 60-day observation, versus control; for Therapeutic ratio TR: O.D./ILS30
Description: Tests were conducted in accordance with the method for measuring antitumor activity of National Cancer Center Tokyo (A, Hoshi et al, Farumashia 9 464 (1973)). Test compounds were each intraperitoneally (referred to as ip) or orally (referred to as op) administered once a day for 5 successive days to a 6-membered group of femal mice (BDF1 family, each weighing 20 to 23 g) 24 hours after 1×10^5 cells of Leukemia L1210 have been implantated into the abdominal cavities of the mice, and the effect was evaluated by comparing the survival days of treated groups with those of an untreated group of mice (control group) in 60-day observation. An increase percentage of life span (ILS%) was calculated from said average survival days compared with those of the control group. Further, therapeutic ratio (O.D./ILD30, referred to as T.R.) of each tested compound was calculated from the daily dosage of the compound necessary to increase said average survival days by 30% as compared with the control group (this dosage is referred to as ILS 30) and the daily dosage giving a maximum increase of life span to mice implantated with L1210 cells, namely an optimum dosage (referred to as O.D.). The results of five successive days intraperitoneal administrations of test compounds were shown in Tables I to III, and those of five successive oral administrations in Table IV.

[1] = Acute toxicity (LD50, Behrens-Karber method); assay type: in vivo, ICR mice; conditions: mouse, in vivo, ip, mortality during 30 days
Description: Test compounds, dissolved or suspended in 0.5% aqueous CMC, were each intraperitoneally administered to ICR mice in a dose of 0.1 ml per 10 g body weight. LD50 (mg/kg) value of each test compound was calculated from the mortality of mice during 30 days by the Behrens-Karber method.

CC(C)CO[C@H]1O[C@H](CO)[C@@H](O)[C@H](O)[C@H]1N(Cc1ccccc1)C(=O)N(CCCl)N=O [Compound 62, 3-benzyl-3-(isobutyl α-D-glucopyranose-2-yl)-1-(2-chloroethyl)-1-nitrosourea]
ED (maximum ILS) (Leukemia L1210): 200 mg/kg | ED30 (Leukemia L1210): 7.8 mg/kg | Survivors after 60 days (Leukemia L1210): 3/6 | Max. ILS % (Leukemia L1210): > 340% | Therapeutic ratio TR (Leukemia L1210): 25.6 | LD50 at 720 h [1]: 565 mg/kg

CCCCCCCCCCN(C[C@H]1O[C@H](OCCCC)[C@H](O)[C@@H](O)[C@@H]1O)C(=O)N(CCCl)N=O [Compound 8, 3-n-decyl-3-(n-butyl α-D-glucopyranose-6-yl)-1-(2-chloroethyl)-1-nitrosourea]
ED (maximum ILS) (Leukemia L1210): 100 mg/kg | ED30 (Leukemia L1210): 4.46 mg/kg | Survivors after 60 days (Leukemia L1210): 3/6 | Max. ILS % (Leukemia L1210): > 450% | Therapeutic ratio TR (Leukemia L1210): 22.4 | LD50 at 720 h [1]: 315 mg/kg

CO[C@H]1O[C@H](CO)[C@@H](O)[C@H](O)[C@H]1NC(=O)N(CCCl)N=O [Compound 2MCαG, 3-(methyl α-D-glucopyranose-2-yl)-1-(2-chloroethyl)-1-nitrosourea, reference compound]
ED (maximum ILS) (Leukemia L1210): 15.2 mg/kg | ED30 (Leukemia L1210): 1.15 mg/kg | Survivors after 60 days (Leukemia L1210): 5/6 | Max. ILS % (Leukemia L1210): > 625% | Therapeutic ratio TR (Leukemia L1210): 13.2 | LD50 at 720 h [1]: 46 mg/kg

CCC(C)O[C@H]1O[C@H](CO)[C@@H](O)[C@H](O)[C@H]1N(CC(C)C)C(=O)N(CCCl)N=O (stereo partly drawn) [Compound 59, 3-isobutyl-3-(sec-butyl α-D-glucopyranose-2-yl)-1-(2-chloroethyl)-1-nitrosourea]
ED (maximum ILS) (Leukemia L1210): 200 mg/kg | ED30 (Leukemia L1210): 5.8 mg/kg | Survivors after 60 days (Leukemia L1210): 3/6 | Max. ILS % (Leukemia L1210): > 348% | Therapeutic ratio TR (Leukemia L1210): 34.5 | LD50 at 720 h [1]: 605 mg/kg

CCCCCCN(C[C@H]1O[C@H](OC2CCCCC2)[C@H](O)[C@@H](O)[C@H]1O)C(=O)N(CCCl)N=O [Compound 100, 3-n-hexyl-3-(cyclohexyl α-D-galactopyranose-6-yl)-1-(2-chloroethyl)-1-nitrosourea]
ED (maximum ILS) (Leukemia L1210): 200 mg/kg | ED30 (Leukemia L1210): 6.41 mg/kg | Survivors after 60 days (Leukemia L1210): 3/6 | Max. ILS % (Leukemia L1210): > 330% | Therapeutic ratio TR (Leukemia L1210): 31.2 | LD50 at 720 h [1]: 580 mg/kg

C=C(C)CN(C(=O)N(CCCl)N=O)C1C(CO)OC(OC(C)CC)C(O)C1O [Compound 91, 3-(2-methyl-2-propenyl)-3-(sec-butyl α-D-glucopyranose-4-yl)-1-(2-chloroethyl)-1-nitrosourea]
ED (maximum ILS) (Leukemia L1210): 150 mg/kg | ED30 (Leukemia L1210): 4.65 mg/kg | Survivors after 60 days (Leukemia L1210): 3/6 | Max. ILS % (Leukemia L1210): > 340% | Therapeutic ratio TR (Leukemia L1210): 32.3 | LD50 at 720 h [1]: 450 mg/kg

CC(C)CO[C@@H]1O[C@H](CN(CCC(C)(C)C)C(=O)N(CCCl)N=O)[C@@H](O)[C@H](O)[C@H]1O [Compound 189, 3-(3,3-dimethyl-n-butyl)-2-(isobutyl β-D-glucopyranose-6-yl)-1-(2-chloroethyl)-1-nitrosourea]
ED (maximum ILS) (Leukemia L1210): 150 mg/kg | ED30 (Leukemia L1210): 3.1 mg/kg | Survivors after 60 days (Leukemia L1210): 6/6 | Max. ILS % (Leukemia L1210): > 700% | Therapeutic ratio TR (Leukemia L1210): 48.4 | LD50 at 720 h [1]: 480 mg/kg

COCC(C)O[C@H]1O[C@H](CN(CC2CC2)C(=O)N(CCCl)N=O)[C@@H](O)[C@H](O)[C@H]1O (stereo partly drawn) [Compound 34, 3-cyclopropylmethyl-3-(1-methyl-2-methoxyethyl α-D-glucopyranose-6-yl)-1-(2-chloroethyl)-1-nitrosourea]
ED (maximum ILS) (Leukemia L1210): 150 mg/kg | ED30 (Leukemia L1210): 2.34 mg/kg | Survivors after 60 days (Leukemia L1210): 6/6 | Max. ILS % (Leukemia L1210): > 700% | Therapeutic ratio TR (Leukemia L1210): 64.1 | LD50 at 720 h [1]: 480 mg/kg

CCOCCO[C@H]1O[C@H](CO)[C@H](N(CC(C)C)C(=O)N(CCCl)N=O)[C@H](O)[C@H]1O [Compound 131, 3-isobutyl-3-(2-ethoxyethyl α-D-galacropyranose-4-yl)-1-(2-chloroethyl)-1-nitrosourea]
ED (maximum ILS) (Leukemia L1210): 160 mg/kg | ED30 (Leukemia L1210): 3.98 mg/kg | Survivors after 60 days (Leukemia L1210): 4/6 | Max. ILS % (Leukemia L1210): > 430% | Therapeutic ratio TR (Leukemia L1210): 40.2 | LD50 at 720 h [1]: 565 mg/kg

Cc1ccc(CN(C[C@H]2O[C@H](OC3CCCCC3)[C@H](O)[C@@H](O)[C@@H]2O)C(=O)N(CCCl)N=O)cc1 [Compound 47, 3-(p-methylbenzyl)-3-(cyclohexyl α-D-glucopyranose-6-yl)-1-(2-chloroethyl)-1-nitrosourea]
ED (maximum ILS) (Leukemia L1210): 170 mg/kg | ED30 (Leukemia L1210): 4.97 mg/kg | Survivors after 60 days (Leukemia L1210): 4/6 | Max. ILS % (Leukemia L1210): > 440% | Therapeutic ratio TR (Leukemia L1210): 34.2 | LD50 at 720 h [1]: 545 mg/kg
